In PubChem BioAssay AID248 (DTP/NCI, 2004):
“And” between values parts separate entries of the source, which are not always exact repeats. Equal entries are not always repeated. Inconclusive results and toxic doses are left out. Cut-off read from the data, not from the text of the source: active = T/C of 150% or more; inactive = T/C below 125%.

Tested on: L1210 leukemia ip in BDF1 mice, survival T/C
Assay: NCI In Vivo Anticancer Drug Screen. Data for tumor model L1210 Leukemia (intraperitoneal) in B6D2F1 (BDF1) mice
Conditions: endpoint: mean survival time, higher = longer survival
Outline: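 Transplanted-tumor mice were given test agent; controls received vehicle only. Survival readings from the two groups were divided (treated over control).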

[1] = dose: 100.0 mg/kg/injection, schedule: Q01DX001 (ip), vehicle: Klucel (hydroxypropylcellulose) (HPC)
[2] = dose: 200.0 mg/kg/injection, schedule: Q01DX001 (ip), vehicle: Klucel (hydroxypropylcellulose) (HPC)
[3] = dose: 100.0 mg/kg/injection, schedule: Q01DX001 (ip), vehicle: saline
[4] = dose: 100.0 mg/kg/injection, schedule: Q04DX003 (ip), vehicle: saline
[5] = dose: 200.0 mg/kg/injection, schedule: Q04DX003 (ip), vehicle: saline
[6] = dose: 400.0 mg/kg/injection, schedule: Q04DX003 (ip), vehicle: saline
[7] = dose: 200.0 mg/kg/injection, schedule: Q01DX001 (ip), vehicle: saline
[8] = dose: 400.0 mg/kg/injection, schedule: Q01DX001 (ip), vehicle: saline
[9] = dose: 100.0 mg/kg/injection, schedule: Q01DX001 (ip), vehicle: carboxymethylcellulose (CMC)
[10] = dose: 200.0 mg/kg/injection, schedule: Q01DX001 (ip), vehicle: carboxymethylcellulose (CMC)
[11] = dose: 400.0 mg/kg/injection, schedule: Q01DX001 (ip), vehicle: carboxymethylcellulose (CMC)
[12] = dose: 50.0 mg/kg/injection, schedule: Q01DX001 (ip), vehicle: carboxymethylcellulose (CMC)
[13] = dose: 100.0 mg/kg/injection, schedule: Q01DX001 (ip), vehicle: saline with Tween-80
[14] = dose: 200.0 mg/kg/injection, schedule: Q01DX001 (ip), vehicle: saline with Tween-80
[15] = dose: 400.0 mg/kg/injection, schedule: Q01DX001 (ip), vehicle: saline with Tween-80

Measured: T/C

Cc1nccnc1S(=O)(=O)c1ccc2ccccc2c1
inactive: [1] 101 % of control | [2] 97 % of control

COC(=O)C1C(O)CCC2CN3CCc4c([nH]c5ccccc45)C3CC21 (stereo not drawn)
inactive: dose: 50.0 mg/kg/injection, schedule: Q01DX001 (ip), vehicle: saline 102 % of control | dose: 75.0 mg/kg/injection, schedule: Q01DX Z (ip), vehicle: carboxymethylcellulose (CMC) 92 % of control | [3] 91 % of control | dose: 150.0 mg/kg/injection, schedule: Q01DX Z (ip), vehicle: carboxymethylcellulose (CMC) 100 % of control

CN(N)/C(N)=N/N
inactive: [4] 97 % of control | [5] 102 % of control | [6] 97 % of control

c1cnon1
inactive: [3] 102 % of control | [7] 102 % of control | [8] 95 % of control

COB1OB(OC)OB(OC)O1
inactive: dose: 500.0 mg/kg/injection, schedule: Q01DX Z (ip), vehicle: other 94 % of control | dose: 750.0 mg/kg/injection, schedule: Q01DX Z (ip), vehicle: other 104 % of control | dose: 1000.0 mg/kg/injection, schedule: Q01DX001 (ip), vehicle: carboxymethylcellulose (CMC) 109 % of control | dose: 1000.0 mg/kg/injection, schedule: Q01DX Z (ip), vehicle: other 107 % of control | dose: 1500.0 mg/kg/injection, schedule: Q01DX Z (ip), vehicle: other 118 % of control | dose: 2000.0 mg/kg/injection, schedule: Q01DX001 (ip), vehicle: carboxymethylcellulose (CMC) 113 % of control | dose: 3000.0 mg/kg/injection, schedule: Q01DX001 (ip), vehicle: carboxymethylcellulose (CMC) 113 % of control

CCCCCc1c(CCC)[nH]c(=O)[nH]c1=O
inactive: [1] 105 % of control | [2] 106 % of control | dose: 400.0 mg/kg/injection, schedule: Q01DX001 (ip), vehicle: Klucel (hydroxypropylcellulose) (HPC) 90 % of control

O=c1[nH]cnc2c1c(Br)cn2C1OC(CO)C(O)C1O (stereo not drawn)
inactive: [9] 110 % of control | [10] 112 % of control | [11] 121 % of control

O=C(c1ccccc1)c1c(-c2ccccc2)c(-c2ccccc2)n(-c2ccccc2)c1C(=O)c1ccccc1
inactive: dose: 22.2 mg/kg/injection, schedule: Q01DX001 (ip), vehicle: carboxymethylcellulose (CMC) 94 % of control and 96 % of control | dose: 33.35 mg/kg/injection, schedule: Q01DX001 (ip), vehicle: carboxymethylcellulose (CMC) 91 % of control | [12] 94 % of control | dose: 75.0 mg/kg/injection, schedule: Q01DX001 (ip), vehicle: carboxymethylcellulose (CMC) 94 % of control

BrC=C=C1CCCCC1
inactive: dose: 100.0 mg/kg/injection, schedule: Q01DX009 (ip), vehicle: saline 98 % of control | dose: 200.0 mg/kg/injection, schedule: Q01DX009 (ip), vehicle: saline 93 % of control | dose: 400.0 mg/kg/injection, schedule: Q01DX009 (ip), vehicle: saline 95 % of control

CCOC(=O)CCC(C)Br (stereo not drawn)
inactive: dose: 50.0 mg/kg/injection, schedule: Q01DX009 (ip), vehicle: saline with Tween-80 97 % of control | dose: 100.0 mg/kg/injection, schedule: Q01DX009 (ip), vehicle: saline with Tween-80 101 % of control | dose: 200.0 mg/kg/injection, schedule: Q01DX009 (ip), vehicle: saline with Tween-80 108 % of control

O=C(COc1ccccc1C(=O)O)NCc1ccc(Cl)cc1
inactive: dose: 100.0 mg/kg/injection, schedule: Q04DX003 (ip), vehicle: gum acacia 97 % of control | dose: 200.0 mg/kg/injection, schedule: Q04DX003 (ip), vehicle: gum acacia 95 % of control | dose: 400.0 mg/kg/injection, schedule: Q04DX003 (ip), vehicle: gum acacia 96 % of control

O=[N+]([O-])c1cc(S(=O)(=O)Oc2ccccc2)ccc1Cl
inactive: dose: 12.5 mg/kg/injection, schedule: Q01DX009 (ip), vehicle: Klucel (hydroxypropylcellulose) (HPC) 105 % of control | dose: 25.0 mg/kg/injection, schedule: Q01DX009 (ip), vehicle: Klucel (hydroxypropylcellulose) (HPC) 105 % of control | [12] 116 % of control | dose: 50.0 mg/kg/injection, schedule: Q01DX009 (ip), vehicle: Klucel (hydroxypropylcellulose) (HPC) 100 % of control | [9] 100 % of control | dose: 100.0 mg/kg/injection, schedule: Q04DX003 (ip), vehicle: Klucel (hydroxypropylcellulose) (HPC) 98 % of control | [10] 100 % of control | dose: 200.0 mg/kg/injection, schedule: Q04DX003 (ip), vehicle: Klucel (hydroxypropylcellulose) (HPC) 103 % of control | [11] 105 % of control | dose: 400.0 mg/kg/injection, schedule: Q04DX003 (ip), vehicle: Klucel (hydroxypropylcellulose) (HPC) 89 % of control

CCOC(=O)COc1c(C)cccc1Cl
inactive: dose: 100.0 mg/kg/injection, schedule: Q04DX002 (ip), vehicle: saline with Tween-80 111 % of control | dose: 200.0 mg/kg/injection, schedule: Q04DX002 (ip), vehicle: saline with Tween-80 114 % of control

CC(=O)Nc1ccc2c(c1)C(=O)c1ccccc1-2
inactive: [4] 96 % of control | [5] 100 % of control | [6] 94 % of control

O=C(Nc1ccc(C2=NCCCCN2)cc1)c1ccc(C(=O)Nc2ccc(C3=NCCCCN3)cc2)c(Cl)c1
inactive: dose: 0.12 mg/kg/injection, schedule: Q01DX015 (ip), vehicle: water 101 % of control | dose: 0.25 mg/kg/injection, schedule: Q01DX015 (ip), vehicle: water 101 % of control | dose: 0.5 mg/kg/injection, schedule: Q01DX015 (ip), vehicle: water 100 % of control and 101 % of control | dose: 0.75 mg/kg/injection, schedule: Q01DX015 (ip), vehicle: water 103 % of control

c1ccc(-c2ccn(C3CCCCC3)c2-c2ccccc2)cc1
inactive: [13] 87 % of control | [14] 91 % of control | [15] 92 % of control

CCOC(=O)C(C(C)=O)C(c1ccc(O)cc1)C(C(C)=O)C(=O)OCC (stereo not drawn)
inactive: [3] 93 % of control | [7] 86 % of control | [8] 87 % of control

O=C(O)NNC(=O)NO
inactive: [13] 94 % of control | [14] 94 % of control | [15] 92 % of control

Cc1ccc(N=Nc2cc(C(C)C)c(O)cc2C)cc1
inactive: dose: 100.0 mg/kg/injection, schedule: Q01DX001 (ip), vehicle: other 97 % of control | dose: 200.0 mg/kg/injection, schedule: Q01DX001 (ip), vehicle: other 97 % of control | dose: 400.0 mg/kg/injection, schedule: Q01DX001 (ip), vehicle: other 95 % of control

O=C1CNC(=O)CN1
inactive: dose: 75.0 mg/kg/injection, schedule: Q01DX009 (ip), vehicle: saline 94 % of control | [4] 103 % of control | dose: 150.0 mg/kg/injection, schedule: Q01DX009 (ip), vehicle: saline 92 % of control | [5] 106 % of control | dose: 300.0 mg/kg/injection, schedule: Q01DX009 (ip), vehicle: saline 94 % of control | [6] 100 % of control

OCC1C2CC3C(C2)C13 (stereo not drawn)
inactive: [9] 101 % of control | [10] 93 % of control | [11] 90 % of control
